The target in the experiment is bovine brain purified PI 3-kinase. Briefly: Assay of purified PI 3-kinase activity. The conditions noted are these: purified bovine brain PI 3-kinase, phosphatidylinositol substrate, 20 μM ATP. The class given is biochemical. The procedure:
In another, preferred, method, PI 3-kinase was prepared from bovine brain. Two bovine brains (wet weight about 900 g) were obtained from a local slaughterhouse within minutes of slaughter, packed on ice, and homogenized within one hour. Brains were trimmed of excess fat and blood vessels and then homogenized using a Tekmar Tissuemizer (Cincinnati, Ohio) at 4° C. in 20 mM of Tris(pH 8.3) containing 250 mM of sucrose, 6 mM of β-mercaptoethanol, 1 μg/ml of leupeptin, 1 μg/ml of pepstatin A, 0.4 mM of PMSF, and 1 mM of MgCl2.
Following centrifugation for 60 minutes at 10,000×g, the pH of the supernatant (about 1200 mL) was lowered to 5.75 using dropwise addition of 1M acetic acid at 4° C. After stirring for an additional 15 minutes at 4° C., the solution was centrifuged for 60 minutes at 13,500×g. The supernatant was discarded. Pellets were resuspended in Buffer A (20 mM of Tris, pH 8.3, containing 6 mM of β-mercaptoethanol, 0.1 mM of ethylene glycol-bis(β-aminoethyl ether) N,N,N',N'-tetraacetic acid (EGTA), 1 μg/mL of leupeptin, 1 μg/mL of pepstatin A, and 1 mM of MgCl2), and loaded onto a Fast Flow Q Sepharose column (300 ml) at a flow rate of 5 mL/minute at 4° C. […]
PI 3-kinase activity was measured as previously described by Matter, W. F., et al., Biochemical and Biophysical Research Communications, 186: 624-631 (1992). […]

Structures are written as SMILES.

The values below come from patent publication US5726167A, “Inhibition of phosphatidylinositol 3-kinase with viridin, demethoxyviridin, viridiol, demethoxyviridiol, virone, wortmannolone, and analogs thereof” (Eli Lilly and Company, priority 1997, dated 1998).

The term IC50 denotes the concentration that inhibits the measured activity by half. For `COC1C(=O)c2coc3c2[C@@](C)(c2ccc4c(c2C3=O)CCC4=O)[C@@H]1O` (some centres unmarked) [viridin], the “one-half maximal inhibition, IC50” value came to 0.85 ng/mL. Further, where the note is “molar value in brackets, read-out: one-half maximal inhibition, IC50”, the IC50 was 2.4 nM.
